Measured values as given in US6649636B1, “Heteroaryl phenyl pyrazole compounds as anti-inflammatory/analgesic agents” (Pfizer Inc., priority 1999, dated 2003).

Q: For `CS(=O)(=O)c1ccc(-n2nc(C(F)(F)F)cc2-c2ccc(-c3ccco3)cc2)cn1` [Example 1, 5-[4-(2-Furyl)phenyl]-1-[2-(methylsulfonylpyridin)-5-yl]-3-trifluoromethyl-1H-pyrazole], which melting point is on record?
A: 106 to 109 °C

Q: Which melting point does the source give for `Cc1cc(-c2cc(C(F)(F)F)nn2-c2ccc(S(C)(=O)=O)cn2)ccc1-c1cscn1` [Example 2] here?
A: 179 to 182 °C

Q: For `Cc1cc(-c2cc(C(F)(F)C(F)(F)F)nn2-c2ccc(S(C)(=O)=O)nc2)ccc1-c1cscn1` [Example 4], which melting point is on record?
A: 120.8 °C

Q: Which melting point does the source give for `Cc1cc(-c2c(Cl)c(C(F)(F)F)nn2-c2ccc(S(C)(=O)=O)nc2)ccc1-c1cscn1` [Example 5] here?
A: 81 to 83 °C

Q: With `CS(=O)(=O)c1ccc(-n2nc(C(F)(F)F)c(F)c2-c2ccc(-c3cscn3)cc2)cn1` [Example 7] as the compound, how does the melting point read?
A: 170.5 to 171 °C

Q: For `Cc1cc(-c2cc(C(F)(F)F)nn2-c2ccc(S(C)(=O)=O)cn2)ccc1-c1cocn1` [Example 9], which melting point is on record?
A: 154 to 155 °C

Q: Which melting point does the source give for `Cc1cc(-c2cc(C(F)(F)F)nn2-c2ccc(S(C)(=O)=O)cn2)c(C)cc1-c1cscn1` [Example 10] here?
A: 214 to 215 °C

Q: For `Cc1cc(-c2c(C#N)cnn2-c2ccc(S(C)(=O)=O)cn2)ccc1-c1cscn1` [Example 11], which melting point is on record?
A: 223 to 224 °C

Q: For `COC(=O)c1cc(-c2ccc(-c3cscn3)c(C)c2)n(-c2ccc(S(C)(=O)=O)cn2)n1` [Example 12], which melting point is on record?
A: 144 to 145 °C

Q: Which melting point does the source give for `CCc1c(C(F)(F)F)nn(-c2ccc(S(C)(=O)=O)cn2)c1-c1ccc(-c2cscn2)c(C)c1` [Example 13] here?
A: 163 to 164 °C

Q: With `Cc1cc(-c2cc(C(F)(F)F)nn2-c2ccc(S(C)(=O)=O)cn2)ccc1-c1ccco1` [Example 15] as the compound, how does the melting point read?
A: 160 to 161.1 °C

Q: Which melting point does the source give for `Cc1cc(-c2cc(C(F)(F)F)nn2-c2ccc(S(C)(=O)=O)cn2)ccc1-c1ccsc1` [Example 16] here?
A: 165 to 166 °C

Q: For `CS(=O)(=O)c1ccc(-n2nc(C(F)(F)F)cc2-c2ccc(-c3cscn3)c(Cl)c2)cn1` [Example 17], which melting point is on record?
A: 95 to 100 °C

Q: With `CS(=O)(=O)c1ccc(-n2nc(C(F)(F)F)cc2-c2ccc(-c3cscn3)cc2)nc1` [Example 18] as the compound, how does the melting point read?
A: 210 to 211 °C

Q: For `CS(=O)(=O)c1ccc(-n2nc(C(F)(F)F)cc2-c2ccc(-c3cscn3)c(Cl)c2)nc1` [Example 19], which melting point is on record?
A: 175.6 °C

Q: Which melting point does the source give for `COc1cc(-c2cc(C(F)(F)F)nn2-c2ccc(S(C)(=O)=O)cn2)ccc1-c1cscn1` [Example 20] here?
A: 170 to 175 °C

Q: Which melting point does the source give for `CS(=O)(=O)c1ccc(-n2nc(C(F)(F)F)cc2-c2ccc(-c3cscn3)cc2F)nc1` [Example 21] here?
A: 194.3 °C

Q: With `CS(=O)(=O)c1ccc(-n2nc(C(F)(F)F)cc2-c2ccc(-c3cscn3)cc2Cl)nc1` [Example 22] as the compound, how does the melting point read?
A: 166.1 °C

Q: For `CCc1cc(-c2cc(C(F)(F)F)nn2-c2ccc(S(C)(=O)=O)cn2)ccc1-c1cscn1` [Example 23], which melting point is on record?
A: 165.8 °C

Q: With `CS(=O)(=O)c1ccc(-n2nc(C(F)(F)F)cc2-c2ccc(-c3cscn3)c(F)c2)nc1` [Example 24] as the compound, how does the melting point read?
A: 187.5 °C

Q: With `Cc1cc(-c2cc(C(F)(F)F)nn2-c2ccc(S(C)(=O)=O)c(F)n2)ccc1-c1cscn1` [Example 25] as the compound, how does the melting point read?
A: 158.9 °C

Q: For `Cc1cc(-c2cc(C(F)F)nn2-c2ccc(S(C)(=O)=O)cn2)ccc1-c1cscn1` [Example 27], which melting point is on record?
A: 156.9 °C

Q: For `Cc1cc(-c2cc(C(F)(F)F)nn2-c2ccc(S(C)(=O)=O)cn2)ccc1-c1ncco1` [Example 28], which melting point is on record?
A: 174.5 to 176 °C

Q: With `Cc1cc(-c2cc(C(F)(F)F)nn2-c2ccc(S(C)(=O)=O)cn2)ccc1-c1nn[nH]n1` [Example 29] as the compound, how does the melting point read?
A: 241 to 242 °C

Q: For `Cc1cc(-c2cc(C(F)(F)F)nn2-c2ccc(S(C)(=O)=O)cn2)ccc1-c1cnn[nH]1` [Example 30], which melting point is on record?
A: 189 °C

Q: With `Cc1nc(-c2ccc(-c3cc(C(F)(F)F)nn3-c3ccc(S(C)(=O)=O)nc3)cc2)cs1` [Example 32] as the compound, how does the melting point read?
A: 176.9 °C

Q: With `CS(=O)(=O)c1ccc(-n2nc(C(F)(F)F)cc2-c2ccc(-c3ccc(Cl)s3)cc2)cn1` [Example 34] as the compound, how does the melting point read?
A: 155 to 156 °C

Q: Which melting point does the source give for `Cc1ccc(-c2ccc(-c3cc(C(F)(F)F)nn3-c3ccc(S(C)(=O)=O)nc3)cc2)s1` [Example 35] here?
A: 123 to 124 °C

Q: For `CS(=O)(=O)c1ccc(-n2nc(C(F)(F)F)cc2-c2ccc(-c3ccco3)cc2)nn1` [Example 36], which melting point is on record?
A: 209 to 212 °C

Q: With `CS(=O)(=O)c1cnc(-n2nc(C(F)(F)F)cc2-c2ccc(-c3ccco3)cc2)s1` [Example 37] as the compound, how does the melting point read?
A: 188 to 190 °C
